Measurements reported in PubChem BioAssay AID588611 (Sanford-Burnham Center for Chemical Genomics, 2011).
The source made the active and inactive calls.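 How the source made its calls: active means mean EC50 below 100 µM; inactive means the rest.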

Each molecule was assayed against Intestinal-type alkaline phosphatase (Homo sapiens) (UniProt P09923) (assay: human IAP enzyme activators, SAR follow-up, selectivity assay for mouse IAP activator project, biochemical, luminescence, set 2 (AID 588611)). Settings: purified human IAP, CDP-Star luminescence, 30 min.
Sequence of Intestinal-type alkaline phosphatase (Homo sapiens) (P09923 whole entry, looked up): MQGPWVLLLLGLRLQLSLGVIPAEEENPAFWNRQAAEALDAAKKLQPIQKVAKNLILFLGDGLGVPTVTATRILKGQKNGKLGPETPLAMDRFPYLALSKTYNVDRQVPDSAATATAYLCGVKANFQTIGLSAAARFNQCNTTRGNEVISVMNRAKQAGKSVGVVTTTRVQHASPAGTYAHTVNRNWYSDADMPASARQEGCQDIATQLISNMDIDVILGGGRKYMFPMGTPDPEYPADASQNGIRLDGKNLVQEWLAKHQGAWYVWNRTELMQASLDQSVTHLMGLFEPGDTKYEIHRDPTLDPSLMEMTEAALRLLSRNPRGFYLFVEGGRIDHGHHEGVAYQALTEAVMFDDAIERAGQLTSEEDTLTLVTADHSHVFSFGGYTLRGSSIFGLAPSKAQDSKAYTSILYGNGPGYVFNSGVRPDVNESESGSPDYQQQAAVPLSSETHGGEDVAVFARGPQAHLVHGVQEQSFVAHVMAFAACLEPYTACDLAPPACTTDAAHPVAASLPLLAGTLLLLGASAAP
For `CN(C)S(=O)(=O)c1cccc(NC(=S)NCCc2cccc(F)c2)c1`, the EC50 was > 100 µM (inactive).
For `O=C(CCc1ccccc1)NC(=S)Nc1cccc(S(=O)(=O)N2CCCC2)c1`, the EC50 was > 100 µM (inactive).
In the case of `Cc1ccc(S(=O)(=O)N(C)C)cc1NC(=S)NCCCn1ccnc1`, the EC50 is reported as > 100 µM (inactive).
`CN(C)CCCNC(=S)Nc1cccc(S(=O)(=O)N(C)C)c1` was tested, and the EC50 was > 100 µM (inactive).
An EC50 of 75.5 µM was found for `CN(C)S(=O)(=O)c1cccc(NC(=S)NCc2ccc(Cl)cc2)c1` in this work.
`CN(C)S(=O)(=O)c1cccc(NC(=S)NCCC(=O)N2CCCC2)c1` was tested, and the EC50 was > 100 µM (inactive).
`Cc1ccccc1CNC(=S)Nc1ccc(S(=O)(=O)N(C)C)cc1` was tested, and the EC50 was > 100 µM (inactive).
For `CN(CCc1ccccc1)C(=S)Nc1cccc(S(=O)(=O)N(C)C)c1`, the EC50 was > 100 µM (inactive).
For `Cc1ccc(CNC(=S)Nc2cccc(S(=O)(=O)N(C)C)c2)cc1`, the EC50 was > 100 µM (inactive).
An EC50 of 53.1 µM was found for `CC1CCN(S(=O)(=O)c2ccc(NC(=S)NCCC(c3ccccc3)c3ccccc3)cc2)CC1` in this work.
For `CCN(CC)CCCNC(=S)Nc1cccc(S(=O)(=O)N(C)C)c1`, the EC50 was > 100 µM (inactive).
In the case of `Cc1ccc(S(=O)(=O)N(C)C)cc1NC(=S)NC1CCN(Cc2ccccc2)CC1`, the EC50 is reported as > 100 µM (inactive).
An EC50 of 73.7 µM was found for `CN(C)S(=O)(=O)c1ccc(NC(=S)NCCc2cccc(Br)c2)cc1` in this work.
In the case of `O=C(NC(=S)Nc1cc(S(=O)(=O)N2CCOCC2)ccc1O)c1ccco1`, the EC50 is reported as > 100 µM (inactive).
`CN(C)S(=O)(=O)c1cccc(NC(=S)NCCCN2CCCC2=O)c1` was tested, and the EC50 was > 100 µM (inactive).
`CN(C)S(=O)(=O)c1ccc(NC(=S)NCCc2cccc(O)c2)cc1` was tested, and the EC50 was > 100 µM (inactive).
An EC50 of 70.7 µM was found for `CN(C)S(=O)(=O)c1cccc(NC(=S)NC(C)(C)CC(C)(C)C)c1` in this work.
`CC1CCN(S(=O)(=O)c2ccc(NC(=S)NCC(c3ccccc3)c3ccccc3)cc2)CC1` was tested, and the EC50 was > 100 µM (inactive).
`CC1CC(NC(=S)Nc2cccc(S(=O)(=O)N(C)C)c2)CC(C)N1` (centres undefined) was tested, and the EC50 was > 100 µM (inactive).
An EC50 of 53 µM was found for `O=S(=O)(c1ccc(NC(=S)NCCC(c2ccccc2)c2ccccc2)cc1)N1CCCCC1` in this work.
An EC50 of 55.5 µM was found for `CCN(CC)S(=O)(=O)c1ccc(NC(=S)NCC(c2ccccc2)c2ccccc2)cc1` in this work.
An EC50 of 41.3 µM was found for `CCN(CC)S(=O)(=O)c1ccc(NC(=S)NCCC(c2ccccc2)c2ccccc2)cc1` in this work.
An EC50 of 57.2 µM was found for `CN(C)S(=O)(=O)c1ccc(NC(=S)NCCC(c2ccccc2)c2ccccc2)cc1` in this work.
An EC50 of 39.4 µM was found for `CN(C)S(=O)(=O)c1cccc(NC(=S)NCC(c2ccccc2)c2ccccc2)c1` in this work.
An EC50 of 89.6 µM was found for `Cc1ccc(CNC(=S)Nc2ccc(S(=O)(=O)N(C)C)cc2)cc1` in this work.
For `O=C(NC(=S)Nc1cc(S(=O)(=O)N2CCOCC2)ccc1N1CCOCC1)c1ccco1`, the EC50 was > 100 µM (inactive).
`O=c1c2ccccc2[nH]c(=S)n1-c1cccc(S(=O)(=O)N2CCCC2)c1` was tested, and the EC50 was > 100 µM (inactive).
An EC50 of 82 µM was found for `COc1cccc(CCNC(=S)Nc2cccc(S(=O)(=O)N(C)C)c2)c1` in this work.
For `CN(C)CC(C)(C)CNC(=S)Nc1cccc(S(=O)(=O)N(C)C)c1`, the EC50 was > 100 µM (inactive).
An EC50 of 34 µM was found for `CN(C)S(=O)(=O)c1cccc(NC(=S)NC(c2ccccc2)c2ccccc2)c1` in this work.
An EC50 of 58.5 µM was found for `O=S(=O)(c1ccc(NC(=S)NCC(c2ccccc2)c2ccccc2)cc1)N1CCCC1` in this work.
An EC50 of 58.2 µM was found for `O=S(=O)(c1ccc(NC(=S)NC(c2ccccc2)c2ccccc2)cc1)N1CCCC1` in this work.
In the case of `Cc1ccc(S(=O)(=O)N(C)C)cc1NC(=S)NC(=O)C12CC3CC(CC(C3)C1)C2`, the EC50 is reported as > 100 µM (inactive).
For `COc1cccc(CNC(=S)Nc2ccc(S(=O)(=O)N(C)C)cc2)c1`, the EC50 was > 100 µM (inactive).
In the case of `COc1ccccc1CNC(=S)Nc1ccc(S(=O)(=O)N(C)C)cc1`, the EC50 is reported as > 100 µM (inactive).
With `COc1ccc(CNC(=S)Nc2ccc(S(=O)(=O)N3CCCCC3)cc2)cc1OC` the EC50 was > 100 µM (inactive).
An EC50 of 62.4 µM was found for `CN(C)S(=O)(=O)c1ccc(NC(=S)NC(c2ccccc2)c2ccccc2)cc1` in this work.
With `CN(C)S(=O)(=O)c1ccc(NC(=S)NCc2ccc(Cl)cc2)cc1` the EC50 was > 100 µM (inactive).
An EC50 of 66.6 µM was found for `Cc1ccc(S(=O)(=O)N(C)C)cc1NC(=S)NC(C)CCC(C)C` (centres undefined) in this work.
In the case of `CCOc1cc(CCNC(=S)Nc2ccc(S(=O)(=O)N(C)C)cc2)ccc1OC`, the EC50 is reported as > 100 µM (inactive).
An EC50 of 63.7 µM was found for `CCN(CC)S(=O)(=O)c1ccc(NC(=S)NC(c2ccccc2)c2ccccc2)cc1` in this work.
With `COc1ccc(CCNC(=S)Nc2ccc(S(=O)(=O)N3CCCCC3)cc2)cc1OC` the EC50 was > 100 µM (inactive).
For `CN(C)S(=O)(=O)c1cccc(NC(=S)NCCN2CCCC2)c1`, the EC50 was > 100 µM (inactive).
An EC50 of 77.2 µM was found for `COc1ccc(CCNC(=S)Nc2ccc(S(=O)(=O)N3CCCCC3)cc2)cc1` in this work.
An EC50 of 76.8 µM was found for `O=S(=O)(c1ccc(NC(=S)NCc2cccc(F)c2)cc1)N1CCCCC1` in this work.
In the case of `CC1CCN(S(=O)(=O)c2ccc(NC(=S)NC(c3ccccc3)c3ccccc3)cc2)CC1`, the EC50 is reported as > 100 µM (inactive).
An EC50 of 68.7 µM was found for `O=S(=O)(c1ccc(NC(=S)NC(c2ccccc2)c2ccccc2)cc1)N1CCCCC1` in this work.
For `CN(C)S(=O)(=O)c1cccc(NC(=S)NCCC(c2ccccc2)c2ccccc2)c1`, the EC50 was > 100 µM (inactive).
In the case of `CCN(CC)c1ccc(C(=O)NC(=S)Nc2cc(S(=O)(=O)N3CCOCC3)ccc2-n2cncn2)cc1`, the EC50 is reported as > 100 µM (inactive).
`CC(CNC(=S)Nc1cccc(S(=O)(=O)N(C)C)c1)N1CCN(c2ccccc2)CC1` (centres undefined) was tested, and the EC50 was > 100 µM (inactive).
For `CN(C)S(=O)(=O)c1ccc(NC(=S)NCCc2ccccc2)cc1`, the EC50 was > 100 µM (inactive).
`CN(C)S(=O)(=O)c1cccc(NC(=S)NCCCn2ccnc2)c1` was tested, and the EC50 was > 100 µM (inactive).
An EC50 of 62.2 µM was found for `O=S(=O)(c1ccc(NC(=S)NCCC(c2ccccc2)c2ccccc2)cc1)N1CCCC1` in this work.
For `CN(C)S(=O)(=O)c1cccc(NC(=S)NCCc2cccc(O)c2)c1`, the EC50 was > 100 µM (inactive).
An EC50 of 58 µM was found for `Cc1ccc(S(=O)(=O)N(C)C)cc1NC(=S)NC(C)CCCC(C)C` (centres undefined) in this work.
With `CN(CCc1ccccn1)C(=S)Nc1cccc(S(=O)(=O)N(C)C)c1` the EC50 was > 100 µM (inactive).
In the case of `Cc1ccc(C)c(NC(=S)Nc2ccc(S(=O)(=O)N3CCCCC3)cc2)c1`, the EC50 is reported as > 100 µM (inactive).
An EC50 of 69.4 µM was found for `CC(CCc1ccccc1)NC(=S)Nc1cccc(S(=O)(=O)N(C)C)c1` (centres undefined) in this work.
An EC50 of 72.1 µM was found for `O=S(=O)(c1ccc(NC(=S)NCC(c2ccccc2)c2ccccc2)cc1)N1CCCCC1` in this work.
In the case of `CN(C)S(=O)(=O)c1cccc(NC(=S)NCCc2ccc(F)cc2)c1`, the EC50 is reported as > 100 µM (inactive).
`CN(C)S(=O)(=O)c1ccc(NC(=S)NCCN2CCCC2)cc1` was tested, and the EC50 was > 100 µM (inactive).
An EC50 of 65 µM was found for `CN(C)S(=O)(=O)c1cccc(NC(=S)NCCc2cccc(Br)c2)c1` in this work.
An EC50 of 84.5 µM was found for `CN(C)S(=O)(=O)c1cccc(NC(=S)NCCc2ccc(Br)cc2)c1` in this work.
For `CN(C)S(=O)(=O)c1cccc(NC(=S)NCCc2ccccc2)c1`, the EC50 was > 100 µM (inactive).
